From publication PMC9757636, “The effectiveness of newly synthesized quaternary ammonium salts differing in chain length and type of counterion against priority human pathogens” (Scientific Reports, 2022)
Where two headings read alike, the source gives them in different places. Marks after values point to notes of the source that are not given here.

Experiments:
[1] = tested on: S. epidermidis ATCC 35984; test: MIC/MBC microdilution; type: cell-based, Staphylococcus epidermidis; conditions: for MBC: read-out: Minimal bactericidal concentration (*MBC); for MIC: 37 °C, >90% growth inhibition, read-out: Minimal inhibitory concentration (MIC)
Description: (§1) The minimum inhibitory concentration (MIC) of the tested monomeric QAS was performed using the microdilution method according to CLSI recommendation (M27-A3). Concentrations from 10 to 1280 µM were analyzed. Strains were incubated with or without compounds (growth control) for 24 h at 37 °C. Three independent replicates were performed. The MIC value was determined spectrophotometrically and the concentration that inhibited more than 90% of growth was determined. Optical density was measured at λ = 590 nm using a 96-well microplate reader (Bio-Rad Universal Hood II).
(§2) To determine the minimum bactericidal concentration (MBC), 10 µL of bacterial suspension incubated with monomeric QAS (MIC concentration and two times higher) was transferred to plates with LB (1% tryptone, 1% yeast extract, 0.5% NaCl) medium. […] The concentration that reduced 99.9% of microbial growth was determined as MBC[54].

[2] = tested on: S. epidermidis B374; test: MIC/MBC microdilution; type: cell-based, Staphylococcus epidermidis
Description: as §1, §2

[3] = tested on: S. epidermidis SI8; test: MIC/MBC microdilution; type: cell-based, Staphylococcus epidermidis; conditions: for MBC: 99.9% reduction, read-out: Minimal bactericidal concentration (*MBC); for MIC: 24 h, 37 °C, >90% growth inhibition, read-out: Minimal inhibitory concentration (MIC)
Description: as §1, §2

[4] = tested on: S. aureus ATCC 6538; test: MIC/MBC microdilution; type: cell-based, Staphylococcus aureus; conditions: for MIC: 24 h, 37 °C, >90% growth inhibition, read-out: Minimal inhibitory concentration (MIC); for MBC: 99.9% reduction, read-out: Minimal bactericidal concentration (*MBC)
Description: as §1, §2

[5] = tested on: S. aureus MRSA R98; test: MIC/MBC microdilution; type: cell-based, Staphylococcus aureus; conditions: for MBC / MIC: Staphylococcus aureus, MRSA; for MBC: read-out: Minimal bactericidal concentration (*MBC); for MIC: read-out: Minimal inhibitory concentration (MIC)
Description: as §1, §2

[6] = tested on: E. coli ATCC 11229; test: MIC/MBC microdilution; type: cell-based, Escherichia coli
Description: as §1, §2

[7] = tested on: E. coli H64; test: MIC/MBC microdilution; type: cell-based, Escherichia coli; conditions: for MIC / MBC: Escherichia coli; for MIC: H64, 24 h, read-out: Minimal inhibitory concentration (MIC); for MBC: H64, E. coli H64, read-out: Minimal bactericidal concentration (*MBC)
Description: as §1, §2

[8] = tested on: P. aeruginosa ATCC 27853; test: MIC/MBC microdilution; type: cell-based, Pseudomonas aeruginosa; conditions: for MIC / MBC: Pseudomonas aeruginosa; for MIC: ATCC27853, 24 h, read-out: Minimal inhibitory concentration (MIC); for MBC: ATCC27853, P. aeruginosa ATCC 27853, read-out: Minimal bactericidal concentration (*MBC)
Description: as §1, §2

[9] = tested on: P. aeruginosa PAO1; test: MIC/MBC microdilution; type: cell-based, Pseudomonas aeruginosa; conditions: for MBC / MIC: Pseudomonas aeruginosa; for MBC: read-out: Minimal bactericidal concentration (*MBC); for MIC: read-out: Minimal inhibitory concentration (MIC)
Description: as §1, §2

[10] = Critical micelle concentration by conductometric measurements; type: physicochemical; conditions: aqueous solution, 25 °C
Description: Values of critical micelle concentrations (CMC) of cationic surfactants were measured conductrometrically. N5721 conductometer (Tel-Eko Projekt sp z o.o., Poland), equipped with N5981 probe, was calibrated using 0.1 M, 0.01 M and 0.001 M KCl aqueous solutions (conductivities equal to 1.287 S/m, 0.141 S/m and 0.0147 S/m, respectively) and used without temperature compensation mode (constant temperature 25 °C was kept during all calibration procedures and measurements). Values of specific conductivities of at least 15 different concentrations for each surfactant were measured and plotted versus concentration; the discontinuity point was used to determine critical micelle concentration.

[11] = tested on: S. epidermidis ATCC 35984; test: Adhesion to stainless steel; type: cell-based, Staphylococcus epidermidis; conditions: 1280 µM
[12] = tested on: S. epidermidis B374 biofilm; test: Biofilm eradication; type: cell-based, Staphylococcus epidermidis; conditions: 160 µM, 4 h
Description: (§3) Biofilm eradication assay was performed according to the method of Christensen et al. with modifications. A standardized bacterial (OD = 0.6) suspension of 100 µL was spotted into a 96-well polystyrene plate. They were incubated for 24 h at 37 °C. Cultures were removed, the plate was washed and then concentrations of QAS ([…]) were added, incubated for 4 h at 37 °C with 100 rpm shaking. The wells were washed with miliQ and fixed at 60 °C for 20 min. The wells were […] with 0.1% crystal violet solution for 5 min. The wells were washed with miliQ until the unfixed dye was completely eluted. The absorbance at λ = 590 nm was measured using a reader (Bio-Rad Universal Hood II). The positive control was an untreated biofilm. Three independent test trials were performed.

[13] = tested on: Salmonella typhimurium TA100; test: Mutagenicity (Ames test); type: cell-based; conditions: for Number of colonies: ± SD
Description: (§4) Two reference strains of Salmonella Typhimurium TA98 and Salmonella Typhimurium TA100, deficient in histidine synthesis, were used for this study according to the method proposed by Ames et al. with modifications. […] The mixture was mixed and poured onto a Davis minimal medium plate. The mixture without the test compound was used as a negative control. The positive control was a mixture of bacterial culture, biotin-histidine solution, and sodium azide (at a concentration of 15 μg/mL for strain TA100) or acriflavine (at a concentration of 100 μg/mL for strain TA98). Plates were incubated for 48 h at 37 °C, and then colonies were counted. The mutagenicity ratio (MR), the ratio of the number of revertants grown in the presence of the test compound to the number of spontaneously occurring revertants (negative control), was calculated. A mutagenic ratio equal to or greater than 1.7 indicates the mutagenic potential of the tested compounds. The study was performed in three times.

[14] = tested on: Salmonella typhimurium TA98; test: Mutagenicity (Ames test); type: cell-based; conditions: for Number of colonies: ± SD
Description: as §4

[15] = tested on: P. aeruginosa PAO1; test: Adhesion to stainless steel; type: cell-based, Pseudomonas aeruginosa; conditions: P. aeruginosa PAO1; 1280 µM
[16] = tested on: S. epidermidis ATCC 35984 biofilm; test: Biofilm eradication; type: cell-based, Staphylococcus epidermidis; conditions: 10 µM, 4 h
Description: as §3

[17] = tested on: S. epidermidis B374; test: Adhesion to stainless steel; type: cell-based, Staphylococcus epidermidis; conditions: 1280 µM, ranges given over several strains
[18] = tested on: S. epidermidis ATCC 35984; test: Adhesion to polystyrene plate; type: cell-based, Staphylococcus epidermidis; conditions: 1280 µM, range given over two strains
Description: (§5) Adhesion analysis to polystyrene surfaces was determined according to the method of Rodrigues et al. with modifications. Polystyrene 96-well plates were incubated with the respective compound concentrations (10–1280 µM) for 4 h at 37 °C with 100 rpm shaking. The plates were then washed with miliQ and inoculated with 100 µL of bacterial suspension (OD = 0.4–0.6). Plates were incubated for 6 h at 37 °C with 100 rpm shaking. Wells were rinsed and fixed for 20 min at 60 °C. They were then […] with 0.1% crystal violet solution for 5 min. The wells were washed with miliQ until the unfixed dye was completely eluted. The absorbance at λ = 590 nm was measured using a reader (Bio-Rad Universal Hood II). The positive control was a surface not treated with QAS. Three independent trials were performed.

[19] = tested on: S. epidermidis B374; test: Adhesion to polystyrene plate; type: cell-based, Staphylococcus epidermidis; conditions: 1280 µM
Description: as §5

[20] = tested on: P. aeruginosa PAO1; test: Adhesion to glass; type: cell-based, Pseudomonas aeruginosa; conditions: concentration not given
[21] = Staphylococcus epidermidis, ATCC35984, 99.9% reduction
[22] = Staphylococcus epidermidis, ATCC35984, 24 h
[23] = Staphylococcus aureus, ATCC6538, 24 h, S. aureus ATCC 6538
[24] = Staphylococcus aureus, ATCC6538, S. aureus ATCC 6538
[25] = 24 h, 37 °C, >90% growth inhibition
[26] = E. coli ATCC 11229, 99.9% reduction
[27] = E. coli ATCC 11229, 24 h, 37 °C, >90% growth inhibition
[28] = E. coli H64, 24 h, 37 °C, >90% growth inhibition
[29] = P. aeruginosa ATCC 27853, 24 h, 37 °C, >90% growth inhibition

## CC(=O)[O-].CCCCCCCCCCCCCC(=O)N(C)CCC[N+](C)(C)C [AcC14, [(3-tetradecyilomethylo-amine)propyl] trimethylammonium acetate]
[1]; [21]
  MBC: 160 µM
[1]; [22]
  MIC: 160 µM
[2]; S. epidermidis B374, 99.9% reduction
  Minimal bactericidal concentration (*MBC): 40 *40 µM
[2]; S. epidermidis B374, 24 h, 37 °C, >90% growth inhibition
  Minimal inhibitory concentration (MIC): 40 *40 µM
[3]; Staphylococcus epidermidis
  MBC: 160 µM
  MIC: 160 µM
[4]; [23]
  MIC: 160 µM
[4]; [24]
  MBC: 160 µM
[5]; 99.9% reduction
  MBC: 160 µM
[5]; [25]
  MIC: 160 µM
[6]; [26]
  Minimal bactericidal concentration (*MBC): 320 *320 µM
[6]; [27]
  Minimal inhibitory concentration (MIC): 320 *320 µM
[7]; [28]
  MIC: 160 µM
[7]; 99.9% reduction
  MBC: 160 µM
[8]; [29]
  MIC: 1280 µM
[8]; 99.9% reduction
  MBC: > 1280 µM
[9]; 99.9% reduction
  MBC: > 1280 µM
[9]; [25]
  MIC: > 1280 µM
[10]
  CMC: 0.0054 mol/L
[11]
  adhesion to stainless steel (remaining): 15%
[12]
  biofilm eradication: 70–80%
[13]; ¼ MIC
  Mutagenicity index: 0.97
  Number of colonies: 194 ± 1
[13]; ½ MIC
  Mutagenicity index: 0.95
  Number of colonies: 189 ± 1.4
[14]; ¼ MIC
  Mutagenicity index: 0.96
  Number of colonies: 24.5 ± 3.5
[14]; ½ MIC
  Mutagenicity index: 1.01
  Number of colonies: 25.7 ± 4

## CC(=O)[O-].CCCCCCCCCCCC(=O)N(C)CCC[N+](C)(C)C [AcC12]
[1]; [21]
  MBC: 640 µM
[1]; [22]
  MIC: 640 µM
[2]; Staphylococcus epidermidis, B374, 24 h, S. epidermidis B374, 24 h, 37 °C, >90% growth inhibition, read-out: Minimal inhibitory concentration (MIC)
  MIC: 320 µM
[2]; Staphylococcus epidermidis, B374, S. epidermidis B374, 99.9% reduction, read-out: Minimal bactericidal concentration (*MBC)
  MBC: 320 µM
[3]; Staphylococcus epidermidis
  MBC: 640 µM
  MIC: 640 µM
[4]; [23]
  MIC: 1280 µM
[4]; [24]
  MBC: 1280 µM
[5]; 99.9% reduction
  MBC: 640 µM
[5]; [25]
  MIC: 640 µM
[6]; Escherichia coli, ATCC11229, 24 h, E. coli ATCC 11229, 24 h, 37 °C, >90% growth inhibition, read-out: Minimal inhibitory concentration (MIC)
  MIC: 1280 µM
[6]; Escherichia coli, ATCC11229, E. coli ATCC 11229, 99.9% reduction, read-out: Minimal bactericidal concentration (*MBC)
  MBC: 1280 µM
[7]; [28]
  MIC: 1280 µM
[7]; 99.9% reduction
  MBC: 1280 µM
[8]; [29]
  MIC: > 1280 µM
[8]; 99.9% reduction
  MBC: > 1280 µM
[9]; 99.9% reduction
  MBC: > 1280 µM
[9]; [25]
  MIC: > 1280 µM
[10]
  CMC: 0.018 mol/L
[11]
  adhesion to stainless steel (remaining): 13 to 30%
[15]
  adhesion to stainless steel (remaining): 13 to 30%
[16]
  biofilm destruction: approximately 40%
[13]; ¼ MIC
  Mutagenicity index: 0.94
  Number of colonies: 264.7 ± 15
[13]; ½ MIC
  Mutagenicity index: 1.08
  Number of colonies: 304 ± 11.3
[14]; ¼ MIC
  Mutagenicity index: 0.96
  Number of colonies: 22 ± 5.3
[14]; ½ MIC
  Mutagenicity index: 0.91
  Number of colonies: 20.8 ± 4.4

## CCCCCCCCCCCCN(C)CCC[N+](C)(C)C.COC(=O)[O-] [MeC12, [(3-dodecyilomethyloamine)propyl] trimethylammonium methylcarbonate]
[1]; 99.9% reduction
  MBC: 640 µM
[1]; 24 h
  MIC: 320 µM
[3]
  MBC: 640 µM
  MIC: 320 µM
[4]; S. aureus ATCC 6538
  MBC: 640 µM
  MIC: 320 µM
[5]; 99.9% reduction
  Minimal bactericidal concentration (*MBC): 640 *640 µM
[5]; [25]
  Minimal inhibitory concentration (MIC): 640 *640 µM
[6]; [26]
  Minimal bactericidal concentration (*MBC): 640 *640 µM
[6]; [27]
  Minimal inhibitory concentration (MIC): 640 *640 µM
[7]; E. coli H64, 99.9% reduction
  Minimal bactericidal concentration (*MBC): 640 *640 µM
[7]; [28]
  Minimal inhibitory concentration (MIC): 640 *640 µM
[8]; P. aeruginosa ATCC 27853, 99.9% reduction
  Minimal bactericidal concentration (*MBC): > 1280 * > 1280 µM
[8]; [29]
  Minimal inhibitory concentration (MIC): > 1280 * > 1280 µM
[9]; 99.9% reduction
  Minimal bactericidal concentration (*MBC): > 1280 * > 1280 µM
[9]; [25]
  Minimal inhibitory concentration (MIC): > 1280 * > 1280 µM
[10]
  CMC: 0.014 mol/L
[17]
  inhibition of adhesion to stainless steel: 69–88%
[18]
  reduced adhesion to polystyrene: 25–46%
[19]
  reduced adhesion to polystyrene: 25–46%
[20]
  reduction of adhesion to glass: approximately 20%
[13]; ¼ MIC
  Mutagenicity index: 0.74
  Number of colonies: 208 ± 17
[13]; ½ MIC
  Mutagenicity index: 0.94
  Number of colonies: 264 ± 11.3
[14]; ¼ MIC
  Mutagenicity index: 0.75
  Number of colonies: 17 ± 3.6
[14]; ½ MIC
  Mutagenicity index: 0.92
  Number of colonies: 21 ± 3.6
